Consider 33 compounds from patent US9814704B2, “Substituted pyrrolo[2,3-b]pyridines as MLK inhibitors” (The University of Rochester, priority 2008, dated 2017).

In general, IC50 refers to the concentration that inhibits the measured activity by half.

Molecules are shown by their SMILES. Counter-ions that a name gives are not always drawn. Like-named read-outs stand apart in the source and are kept apart here.

Series [1] concerns the target MLK3 (Homo sapiens (Human), UniProt Q16584). Briefly: Radiometric Filter Plate MLK3 Assay. The format is biochemical. The following applies: read-out: MK3 IC50. The procedure: Radiometric Filter Plate MLK3 Assay
After a twenty minute incubation, the reactions were washed through filter plates and read on a scintillation counter. Results are shown in Table 4 below, in which +++ indicates ≦0.1 μM, ++ indicates >0.1 μM and ≦1 μM, and + indicates >1 μM.

Series [2] is described as follows: Pharmacokinetic Evaluation in Mice. Also noted: unit not given here. As to conditions: single intravenous (IV) injection at 10 mg/kg, CL57 BL/6 mice, brain homogenate. The format is in vivo. The procedure:
Pharmacokinetic Evaluation in Mice
Several compounds disclosed herein were evaluated in a standard murine pharmacokinetic model.
Compounds were dissolved in either 5% DMSO, 40% PEG400, and 55% saline (pH=8) or […], 40% PEG400, and 55% (20% HP-β-CD in deionized water; pH=8) to yield a nominal concentration of 2 mg/mL for intravenous administration. Compounds were administered via a single intravenous (IV) injection in CL57 BL/6 mice at 10 mg/kg in DMSO/PEG400 solution. Three mice in each group were used for blood and brain collection at each time point. Blood samples (300 μL) were collected via the retro-orbital vein predose and at 5 min, 0.25, 0.50, 1, 2, 4, 6, 8, and 24 hours postdose. Blood samples were placed into tubes containing sodium heparin and centrifuged under refrigerated conditions at 8000 rpm for 6 minutes to separate plasma from the samples. The brain of each animal was collected after the final blood collection. The whole tissue was harvested, excised and rinsed by saline, dried by filter paper, and then placed into one tube per tissue per animal. All samples were stored at −20° C. until bioanalysis.
Compound concentrations in plasma and brain homogenate were determined using a high performance liquid chromatography/mass spectrometry (HPLC/MS/MS) method (Agilent 1100 series HPLC, AB Inc. API4000 triple-quadrupole with an ESI interface and Analyst 1.4 software).
Results in the form of area under the time-versus-concentration curve (AUC) are given below in Table 5.

The mark [3] stands for this setting: 200 ng (130 nM) MLK3, 1 μM inactive MKK7b, 2 μM cold ATP (Km), 33P ATP, twenty minute incubation.

Chain of MLK3 (Q16584 whole entry): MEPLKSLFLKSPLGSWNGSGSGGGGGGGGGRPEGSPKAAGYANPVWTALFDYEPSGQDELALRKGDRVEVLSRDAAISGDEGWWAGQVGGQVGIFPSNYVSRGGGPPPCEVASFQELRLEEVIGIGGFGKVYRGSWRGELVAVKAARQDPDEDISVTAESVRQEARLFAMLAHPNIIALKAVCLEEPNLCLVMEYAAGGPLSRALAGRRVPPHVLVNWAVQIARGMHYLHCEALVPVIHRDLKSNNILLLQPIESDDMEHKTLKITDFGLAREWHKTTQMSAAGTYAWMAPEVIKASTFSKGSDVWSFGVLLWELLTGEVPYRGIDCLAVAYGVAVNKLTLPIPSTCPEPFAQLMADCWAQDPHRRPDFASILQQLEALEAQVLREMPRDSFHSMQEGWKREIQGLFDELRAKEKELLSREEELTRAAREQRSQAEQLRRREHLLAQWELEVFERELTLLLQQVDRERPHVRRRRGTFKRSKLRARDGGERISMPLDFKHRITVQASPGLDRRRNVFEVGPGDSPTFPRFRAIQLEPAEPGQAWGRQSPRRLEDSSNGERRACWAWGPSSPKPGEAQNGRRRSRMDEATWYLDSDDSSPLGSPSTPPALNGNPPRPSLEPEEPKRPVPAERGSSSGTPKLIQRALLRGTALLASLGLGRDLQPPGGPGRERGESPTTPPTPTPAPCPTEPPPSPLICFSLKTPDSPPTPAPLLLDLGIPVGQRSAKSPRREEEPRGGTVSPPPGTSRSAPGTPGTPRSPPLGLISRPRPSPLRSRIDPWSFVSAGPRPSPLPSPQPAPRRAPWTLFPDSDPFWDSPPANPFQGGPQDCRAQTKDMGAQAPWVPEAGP

For `COc1cc(-c2cnc3[nH]cc(-c4ccc5[nH]ccc5c4)c3c2)cc(OC)c1OC` [Example 1, 3-(1H-indol-5-yl)-5-(3,4,5-trimethoxyphenyl)-1H-pyrrolo[2,3-b]pyridine], in series [1], the IC50 lay in the range of 100 to 1000 nM. Further, the “AUC Brain” value in series [2] was “+ (+ indicates ≧500)”.

As to `CN1CCN(Cc2ccc(-c3cnc4[nH]cc(-c5ccc6[nH]ccc6c5)c4c3)cc2)CC1=O` [Example 141, 4-{4-[3-(1H-indol-5-yl)-1H-pyrrolo[2,3-b]pyridin-5-yl]-benzyl}-1-methyl-piperazin-2-one], the IC50 in series [1] (setting [3]) is less than 100 nM.

For the compound `COc1cc(-c2cnc3[nH]cc(-c4ccc5[nH]ccc5c4)c3n2)cc(OC)c1OC` [Example 36, 7-(1H-indol-5-yl)-2-(3,4,5-trimethoxyphenyl)-5H-pyrrolo[3,2-b]pyrazine], in series [1], the IC50 is less than 100 nM. For `COc1cc(-c2cnc3[nH]c(=O)n(-c4ccc5[nH]ccc5c4)c3n2)cc(OC)c1OC` [Example 40, 1-(1H-indol-5-yl)-6-(3,4,5-trimethoxyphenyl)-1H-imidazo[4,5-b]pyrazin-2(3H)-one], the IC50 in series [1] (setting [3]) was less than 100 nM.

Consider `O=c1[nH]c2ncc(-c3ccc4[nH]ccc4c3)nc2n1-c1ccc2[nH]ccc2c1` [Example 53, 1,6-di(1H-indol-5-yl)-1H-imidazo[4,5-b]pyrazin-2(3H)-one], for which, in series [1], the IC50 lay within 100 to 1000 nM. For `COc1cc(-c2cnc3[nH]cc(-c4ccc(C(N)=O)cc4)c3c2)cc(OC)c1OC` [Example 25, 4-(5-(3,4,5-trimethoxyphenyl)-1H-pyrrolo[2,3-b]pyridin-3-yl)benzamide], the IC50 in series [1] (setting [3]) is less than 100 nM. Same read-out and setting: with `COc1cc(-c2cnc3[nH]cc(-c4ccc5[nH]ccc5c4)c3c2)ccc1OCCN(C)C` [Example 35, 2-(4-(3-(1H-indol-5-yl)-1H-pyrrolo[2,3-b]pyridin-5-yl)-2-methoxyphenoxy)-N,N-dimethylethanamine] the figure was more than 1000 nM.

In the case of `COc1cc(-c2cnc3[nH]cc(-c4ccc5[nH]ccc5c4)c3c2)ccc1OCCN1CCNCC1` [Example 34, 3-(1H-indol-5-yl)-5-(3-methoxy-4-(2-(piperazin-1-yl)ethoxy)phenyl)-1H-pyrrolo[2,3-b]pyridine], the IC50 in series [1] is less than 100 nM.

On to `COc1cc(-c2cnc3[nH]c(=O)n(-c4ccc5[nH]ccc5c4)c3n2)ccc1N` [Example 60, 6-(4-amino-3-methoxyphenyl)-1-(1H-indol-5-yl)-1H-imidazo[4,5-b]pyrazin-2(3H)-one], for which the IC50 in series [1] (setting [3]) was less than 100 nM. Still for that read-out and setting: with `COc1cc(-c2cnc3[nH]c(=O)n(-c4ccc5cc[nH]c5c4)c3n2)cc(OC)c1OC` [Example 113, 1-(1H-indol-6-yl)-6-(3,4,5-trimethoxyphenyl)-1H-imidazo[4,5-b]pyrazin-2(3H)-one] the figure was less than 100 nM. With `COc1cc(-c2cnc3c(c2)C(=Cc2cccnc2)C(=O)N3)cc(OC)c1OC` (racemic) [Example 128, 3-pyridin-3-ylmethylene-5-(3,4,5-trimethoxy-phenyl)-1,3-dihydro-pyrrolo[2,3-b]pyridin-2-one], the IC50 in series [1] was 100 to 1000 nM.

In the case of `CC(=O)N1CCN(Cc2ccc(-c3cnc4[nH]cc(-c5ccc6[nH]ccc6c5)c4c3)cc2)CC1` [Example 140, 1-(4-{4-[3-(1H-indol-5-yl)-1H-pyrrolo[2,3-b]pyridin-5-yl]-benzyl}-piperazin-1-yl)-ethanone], the IC50 in series [1] was more than 1000 nM. Still for that read-out and setting: with `NC(=O)c1ccc(-c2c[nH]c3ncc(-c4cccc(C(=O)N5CCNCC5)c4)cc23)cc1` [Example 152, 4-{5-[3-(piperazine-1-carbonyl)-phenyl]-1H-pyrrolo[2,3-b]pyridin-3-yl}-benzamide, hydrochloride salt] the figure was 100 to 1000 nM. For `COc1cc(-c2cnc3[nH]c(=O)n(-c4cnc5[nH]ccc5c4)c3n2)cc(OC)c1OC` [Example 112, 1-(1H-pyrrolo[2,3-b]pyridin-5-yl)-6-(3,4,5-trimethoxyphenyl)-1H-imidazo[4,5-b]pyrazin-2(3H)-one], the IC50 in series [1] (setting [3]) was less than 100 nM. Consider `COc1cc(-c2cnc3[nH]c(=O)n(CC4CC4)c3c2)cc(OC)c1OC` [Example 125, 1-(cyclopropylmethyl)-6-(3,4,5-trimethoxyphenyl)-1H-imidazo[4,5-b]pyridin-2(3H)-one], for which the IC50 in series [1] (setting [3]) is more than 1000 nM. Take `COc1cc(-c2cnc3c(c2)C2(CCCC2)C(=O)N3)cc(OC)c1OC` [Example 121, 5′-(3,4,5-trimethoxyphenyl)spiro[cyclopentane-1,3′-pyrrolo[2,3-b]pyridin]-2′(1′H)-one]: in series [1], the IC50 was in the range of 100 to 1000 nM.

On to `COc1cc(-c2cnc3[nH]cc(-c4ccc5[nH]ccc5c4)c3c2)ccc1N` [Example 5, 4-(3-(1H-indol-5-yl)-1H-pyrrolo[2,3-b]pyridin-5-yl)-2-methoxyaniline], for which the IC50 in series [1] (setting [3]) is less than 100 nM. With `COc1ccc(-c2cnc3[nH]c(=O)n(CC4CC4)c3n2)cc1OC` [Example 79, 1-(cyclopropylmethyl)-6-(3,4-dimethoxyphenyl)-1H-imidazo[4,5-b]pyrazin-2(3H)-one], the IC50 in series [1] is 100 to 1000 nM. Take `O=c1[nH]c2ncc(-c3ccc(O)cc3)nc2n1-c1ccc2[nH]ccc2c1` [Example 45, 6-(4-hydroxyphenyl)-1-(1H-indol-5-yl)-1H-imidazo[4,5-b]pyrazin-2(3H)-one]: the IC50 in series [1] lay in the range of 100 to 1000 nM. Regarding `COc1cc(-c2cnc3[nH]c(=O)n(C4CCc5ccccc54)c3n2)cc(OC)c1OC` (stereo not shown) [Example 101, 1-(2,3-dihydro-1H-inden-1-yl)-6-(3,4,5-trimethoxyphenyl)-1H-imidazo[4,5-b]pyrazin-2(3H)-one], the IC50 in series [1] (setting [3]) was more than 1000 nM. For `COc1ccc(-n2c(=O)[nH]c3ncc(-c4ccc(O)cc4)nc32)cc1` [Example 70, 6-(4-hydroxyphenyl)-1-(4-methoxyphenyl)-1H-imidazo[4,5-b]pyrazin-2(3H)-one], the IC50 in series [1] (setting [3]) was more than 1000 nM. Turning to `COc1cc(-c2cnc3c(c2)C(=Cc2cccc(C(N)=O)c2)C(=O)N3)cc(OC)c1OC` [Example 132, 3-[2-oxo-5-(3,4,5-trimethoxy-phenyl)-1,2-dihydro-pyrrolo[2,3-b]pyridin-3-ylidenemethyl]-benzamide], the IC50 in series [1] (setting [3]) is more than 1000 nM.

With `COc1cc(-c2cnc3[nH]cc(-c4ccc5[nH]ccc5c4)c3n2)ccc1N` [Example 38, 4-(7-(1H-indol-5-yl)-5H-pyrrolo[3,2-b]pyrazin-2-yl)-2-methoxyaniline], the concentration for half-maximal inhibition (IC50) in series [1] (setting [3]) is less than 100 nM. With `COc1cc(-c2cnc3[nH]cc(-c4ccc(F)cc4)c3c2)cc(OC)c1OC` [Example 166, 3-(4-fluoro-phenyl)-5-(3,4,5-trimethoxy-phenyl)-1H-pyrrolo[2,3-b]pyridine], the IC50 in series [1] was in the range of 100 to 1000 nM. On the same count and under the same terms, with `COc1cc(-c2cnc3[nH]c(=O)n(-c4ccccc4)c3n2)cc(OC)c1OC` [Example 105, 1-phenyl-6-(3,4,5-trimethoxyphenyl)-1H-imidazo[4,5-b]pyrazin-2(3H)-one] the figure was 100 to 1000 nM; with `O=c1[nH]c2ncc(-c3ccc(N4CCOCC4)cc3)nc2n1-c1ccc(O)cc1` [Example 116, 1-(4-hydroxyphenyl)-6-(4-morpholinophenyl)-1H-imidazo[4,5-b]pyrazin-2(3H)-one], 100 to 1000 nM. As to `O=C1CN(Cc2ccc(-c3cnc4[nH]cc(-c5ccc6[nH]ccc6c5)c4c3)cc2)CCN1` [Example 142, 4-{4-[3-(1H-indol-5-yl)-1H-pyrrolo[2,3-b]pyridin-5-yl]-benzyl}-piperazin-2-one], the IC50 in series [1] (setting [3]) was less than 100 nM. As for `COc1cc(-c2cnc3[nH]c(=O)n(-c4ccc5[nH]ccc5c4)c3n2)ccc1OCCN1CCNCC1` [Example 67, 1-(1H-indol-5-yl)-6-(3-methoxy-4-(2-(piperazin-1-yl)ethoxy)phenyl)-1H-imidazo[4,5-b]pyrazin-2(3H)-one], the IC50 in series [1] was in the range of 100 to 1000 nM. Turning to `COc1ccc(-c2cnc3[nH]c(=O)n(C4CCCC4)c3n2)cc1OC` [Example 75, 1-cyclopentyl-6-(3,4-dimethoxyphenyl)-1H-imidazo[4,5-b]pyrazin-2(3H)-one], the IC50 in series [1] (setting [3]) was more than 1000 nM.

Consider `COc1cc(-c2cnc3[nH]cc(-c4ccc(N)cc4)c3c2)cc(OC)c1OC` [Example 15, 4-(5-(3,4,5-trimethoxyphenyl)-1H-pyrrolo[2,3-b]pyridin-3-yl)aniline], for which, in series [1] (setting [3]), the IC50 is less than 100 nM. In the case of `CN(C)c1ccc(-c2cnc3[nH]cc(-c4ccc(N(C)C)nc4)c3c2)cn1` [Example 21, 5,5′-(1H-pyrrolo[2,3-b]pyridine-3,5-diyl)bis(N,N-dimethylpyridin-2-amine)], the IC50 in series [1] lay in the range of 100 to 1000 nM. In the case of `COc1cc(-c2cnc3[nH]c(=O)n(-c4ccc5[nH]cnc5c4)c3n2)cc(OC)c1OC` [Example 102, 1-(1H-benzo[d]imidazol-5-yl)-6-(3,4,5-trimethoxyphenyl)-1H-imidazo[4,5-b]pyrazin-2(3H)-one], the IC50 in series [1] (setting [3]) is less than 100 nM. Same read-out and setting: with `COc1cc(-c2cnc3[nH]cc(-c4ccc(NC(C)=O)cc4)c3c2)cc(OC)c1OC` [Example 16, N-(4-(5-(3,4,5-trimethoxyphenyl)-1H-pyrrolo[2,3-b]pyridin-3-yl)phenyl)acetamide] the figure was less than 100 nM.
